{"source": "patent US20240239767A1", "about": "(AstraZeneca AB, priority 2022, published 2024)", "key": {"[1]": {"molecular_target": "GSK3b (Glycogen synthase kinase-3 beta) (Homo sapiens, UniProt P49841)", "sequence (P49841 whole entry)": "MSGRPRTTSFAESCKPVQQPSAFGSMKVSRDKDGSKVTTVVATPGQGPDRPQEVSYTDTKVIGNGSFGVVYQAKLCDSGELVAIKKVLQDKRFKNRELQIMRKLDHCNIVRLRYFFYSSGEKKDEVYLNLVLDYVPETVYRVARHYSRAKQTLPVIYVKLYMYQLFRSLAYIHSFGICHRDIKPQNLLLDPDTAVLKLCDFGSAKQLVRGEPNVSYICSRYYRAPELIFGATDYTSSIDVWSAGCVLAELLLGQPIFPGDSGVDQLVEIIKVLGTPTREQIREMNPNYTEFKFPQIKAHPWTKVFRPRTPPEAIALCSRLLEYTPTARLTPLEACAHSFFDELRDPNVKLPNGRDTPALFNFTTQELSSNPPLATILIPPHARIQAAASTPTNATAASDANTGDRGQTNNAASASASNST", "assay": "Assay 6 - GSK3b assay (ThermoFisher, FRET Z-Lyte)", "type": "biochemical", "settings": "geometric mean; ATP Conc: 10.000 μM; read-out: Assay 6 (GSK3B FRET-Z-Lyte CR) GMean IC50 (μM) ATP Conc: 10.000", "how_it_was_run": "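Z-Lyte FRET kinase assay: 0.22-0.92 ng GSK3β with 2 μM Ser/Thr 09 peptide in 50 mM HEPES pH 7.5, 10 mM MgCl2, 1 mM EGTA, 0.01% BRIJ-35, 60 min at room temperature, then 60 min development. Compounds in 1% DMSO, 10-point 3-fold dilutions from 10 μM; sigmoidal dose-response fit.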"}, "PCSK9 [2]": {"molecular_target": "T1, PCSK9 (Homo sapiens, UniProt Q8NBP7, G670E/V474I)", "assay": "cell-based"}, "PCSK9 [3]": {"molecular_target": "T1, PCSK9", "assay": "biochemical"}, "[4]": {"molecular_target": "T2, potassium ion channel hERG (human Ether-á-go-go-Related Gene) (Homo sapiens, UniProt Q12809)", "T2 construct": "expressed in transfected cells; host or cells: Chinese hamster ovary K1 (CHO)", "T2 sequence (Q12809 whole entry)": "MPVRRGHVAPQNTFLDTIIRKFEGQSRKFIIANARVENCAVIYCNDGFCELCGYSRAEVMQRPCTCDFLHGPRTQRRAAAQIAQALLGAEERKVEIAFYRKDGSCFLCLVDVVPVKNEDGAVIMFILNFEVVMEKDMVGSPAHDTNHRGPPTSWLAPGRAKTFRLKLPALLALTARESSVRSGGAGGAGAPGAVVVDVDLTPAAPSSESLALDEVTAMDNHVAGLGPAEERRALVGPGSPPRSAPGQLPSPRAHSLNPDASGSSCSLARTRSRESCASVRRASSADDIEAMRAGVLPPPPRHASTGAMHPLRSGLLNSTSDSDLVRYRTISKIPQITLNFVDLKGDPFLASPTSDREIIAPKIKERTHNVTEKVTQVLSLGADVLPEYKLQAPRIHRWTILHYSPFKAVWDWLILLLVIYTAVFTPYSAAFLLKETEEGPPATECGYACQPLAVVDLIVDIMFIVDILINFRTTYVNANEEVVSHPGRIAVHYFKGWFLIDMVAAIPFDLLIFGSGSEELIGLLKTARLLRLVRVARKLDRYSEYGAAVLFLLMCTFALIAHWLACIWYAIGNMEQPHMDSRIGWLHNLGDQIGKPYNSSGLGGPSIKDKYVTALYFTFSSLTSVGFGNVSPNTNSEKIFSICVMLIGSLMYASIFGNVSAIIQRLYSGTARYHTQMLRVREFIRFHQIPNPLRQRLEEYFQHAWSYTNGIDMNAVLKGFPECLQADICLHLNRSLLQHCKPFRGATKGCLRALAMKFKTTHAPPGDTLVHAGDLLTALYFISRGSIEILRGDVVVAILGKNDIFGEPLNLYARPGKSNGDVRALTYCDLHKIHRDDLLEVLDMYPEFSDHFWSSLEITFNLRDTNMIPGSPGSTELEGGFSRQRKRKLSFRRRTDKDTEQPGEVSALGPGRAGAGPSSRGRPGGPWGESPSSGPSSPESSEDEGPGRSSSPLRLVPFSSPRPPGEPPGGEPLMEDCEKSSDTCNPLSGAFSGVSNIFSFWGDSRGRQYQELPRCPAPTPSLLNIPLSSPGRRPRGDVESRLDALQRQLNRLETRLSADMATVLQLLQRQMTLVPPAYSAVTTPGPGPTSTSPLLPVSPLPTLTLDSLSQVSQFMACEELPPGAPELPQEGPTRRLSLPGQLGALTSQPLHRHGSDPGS", "assay": "Assay 5 - hERG assay (SyncroPatch 384PE patch clamp, CHO cells)", "type": "cell-based", "settings": "geometric mean, CHO cells over-expressing hERG, read-out: Assay 5 (hERG Hu CHO IF EPh CR-Syncro) GMean IC50", "how_it_was_run": "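Automated whole-cell patch clamp at room temperature on CHO-K1 cells over-expressing hERG, using K-fluoride/escin internal solution (pH 7.2) and NMDG-containing external solution (pH 7.4). Compounds were tested in a 6-point cumulative format, 0.33% final DMSO. Wells accepted only with seal >30 MegaOhm, Z′>0.4 and current >0.2 nA.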"}, "PCSK9 [5]": {"molecular_target": "T3, PCSK9 (Homo sapiens, UniProt Q8NBP7)", "assay": "Assay 2 - Biophysical human PCSK9 assay (SPR, Biacore)", "type": "binding", "parameters": "biotinylated human PCSK9 (31-692)-Avi-His6", "settings": "geometric mean; SPR single-cycle kinetics, 30° C.; read-out: Assay 2 (PCSK9 BIAcore DBA CR) GMean Kd", "procedure": "The SPR binding experiments were performed on a Biacore S200 optical biosensor unit at 30° C. A Series S Sensor Chip SA that is designed to bind biotinylated molecules for interaction analysis in Biacore systems was equilibrated at room temperature prior to use. The running buffer for protein tethering and subsequent ligand binding experiments was 10 mM HEPES pH 7.4, 150 mM NaCl, 0.05% (v/v) Tween 20 pH 7.4.\nFor the surface tethering of PCSK9, biotinylated human PCSK9 (31-692)-Avi-His6 at a concentration of 0.5 mg/mL was used. Prior to the surface tethering, the surface was exposed to a solution of 50 mM NaOH, 500 mM NaCl via 3 consecutive injections of this solution with a contact time of 60 s and a flowrate of 10 μL min- to remove non-conjugated streptavidin. The PCSK9 protein was diluted to a concentration of 20 μg/mL using running buffer and injected with a contact time of 180-300 s and a flowrate of 10 μL min^−1 over a single flow channel (typically flow channel 2 or flow channel 4) with the aim to achieve protein capture levels of >5000 response units (RU). Remaining biotin binding sites were blocked via 2 consecutive injections of a 10 μM D-biotin solution in running buffer with a contact time of 60 s and a flowrate of 10 μL min^−1 over all flow-channels.\nThe binding experiments were all performed at a flow rate of 30 μL min^−1 and by employing the method of single-cycle kinetics. This approach involves the sequential injection of a compound concentration series without regeneration steps. A contact time between 90-150 s was selected, which was followed by a 40 min dissociation phase to allow for a proper estimation of the dissociation rate constant. Test compounds were delivered in DMSO at a concentration of 10 mM and a digital dispenser HP D300 was used to set up the compound concentration series using 6 concentrations. The tested concentrations have been 30, 100, 300, 1000, 3000 and 10000 nM. Prior to injecting any compound, the surfaces were equilibrated by injecting running buffer over them in three separate pulses. The data collection rate was set to 10 Hz.\nThe raw sensorgrams of the compound injections were first subjected to reference subtraction (subtracting the signal from flow channel 1 and/or 3 from the signal from channels 2 and/or 4 respectively) and then blank subtraction (subtracting the signal from injecting DMSO controls from the reference subtracted data). The resulting double-referenced sensorgrams were then fitted using a 1:1 binding interaction model using the manufactures software package to extract kinetic- and affinity data."}, "PCSK9 [6]": {"molecular_target": "T3, PCSK9", "settings": "clinical trials, compared to placebo (Elbitar 2016); cited from earlier work"}}}
{"compound": "Cn1c(=O)n(-c2ccc(N[C@H]3CC[C@H](Nc4nc5cccnc5o4)C3)nc2)c2ncccc21", "note": "[Example 18, 1-Methyl-3-(6-(((1S,3S)-3-(oxazolo[5,4-b]pyridin-2-ylamino)cyclopentyl)amino)pyridin-3-yl)-1,3-dihydro-2H-imidazo[4,5-b]pyridin-2-one]", "values": [{"measurement": "IC50", "setting": "[1]", "value": "> 10", "unit": "µM"}, {"measurement": "IC50", "setting": "PCSK9 [2]", "value": 52, "unit": "nM"}, {"measurement": "IC50", "setting": "PCSK9 [3]", "value": 2.3, "unit": "nM"}, {"measurement": "IC50", "setting": "[4]", "value": "> 40000", "unit": "nM"}, {"measurement": "Kd", "setting": "PCSK9 [5]", "value": 3, "unit": "nM"}]}
{"compound": "alirocumab", "values": [{"measurement": "decrease in LDL levels", "setting": "PCSK9 [6]", "value": "about 50%"}]}
{"compound": "O=c1ccccn1-c1ccc(N[C@H]2CC[C@H](Nc3nc4cccnc4s3)C2)nc1", "note": "[Example 19, 6′-(((1S,3S)-3-(Thiazolo[5,4-b]pyridin-2-ylamino)cyclopentyl)amino)-2H-[1,3′-bipyridin]-2-one]", "values": [{"measurement": "IC50", "setting": "[1]", "value": "> 10", "unit": "µM"}, {"measurement": "IC50", "setting": "PCSK9 [2]", "value": 157, "unit": "nM"}, {"measurement": "IC50", "setting": "PCSK9 [3]", "value": 4.4, "unit": "nM"}, {"measurement": "IC50", "setting": "[4]", "value": "> 40000", "unit": "nM"}, {"measurement": "Kd", "setting": "PCSK9 [5]", "value": 4, "unit": "nM"}]}
{"compound": "O=c1[nH]c2ccsc2c(=O)n1-c1ccc(N[C@H]2CC[C@H](Nc3nc4cccnc4s3)C2)nc1", "note": "[Example 83, 3-(6-(((1S,3S)-3-(Thiazolo[5,4-b]pyridin-2-ylamino)cyclopentyl)amino)pyridin-3-yl)thieno[3,2-d]pyrimidine-2,4(1H,3H)-dione]", "values": [{"measurement": "IC50", "setting": "[1]", "value": "> 10", "unit": "µM"}, {"measurement": "IC50", "setting": "PCSK9 [2]", "value": 79, "unit": "nM"}, {"measurement": "IC50", "setting": "PCSK9 [3]", "value": 0.5, "unit": "nM"}, {"measurement": "IC50", "setting": "[4]", "value": "> 40100", "unit": "nM"}, {"measurement": "Kd", "setting": "PCSK9 [5]", "value": 0.1, "unit": "nM"}]}
{"compound": "COc1cccn(-c2ccc(N[C@H]3CC[C@H](Nc4nc5cccnc5s4)C3)nc2)c1=O", "note": "[Example 21, 3-Methoxy-6′-(((1S,3S)-3-(thiazolo[5,4-b]pyridin-2-ylamino)cyclopentyl)amino)-2H-[1,3′-bipyridin]-2-one]", "values": [{"measurement": "IC50", "setting": "[1]", "value": "> 10", "unit": "µM"}, {"measurement": "IC50", "setting": "PCSK9 [2]", "value": 100, "unit": "nM"}, {"measurement": "IC50", "setting": "PCSK9 [3]", "value": 1.5, "unit": "nM"}, {"measurement": "IC50", "setting": "[4]", "value": "> 40000", "unit": "nM"}, {"measurement": "Kd", "setting": "PCSK9 [5]", "value": 0.5, "unit": "nM"}]}
{"compound": "O=c1ccccn1-c1ccc(N[C@H]2CC[C@H](Nc3nc4cccnc4[nH]3)C2)nc1", "note": "[Example 46, 6′-(((1S,3S)-3-((3H-Imidazo[4,5-b]pyridin-2-yl)amino)cyclopentyl)amino)-2H-[1,3′-bipyridin]-2-one]", "values": [{"measurement": "IC50", "setting": "[1]", "value": 0.425, "unit": "µM"}, {"measurement": "IC50", "setting": "PCSK9 [2]", "value": 102, "unit": "nM"}, {"measurement": "IC50", "setting": "PCSK9 [3]", "value": 4.4, "unit": "nM"}, {"measurement": "IC50", "setting": "[4]", "value": "> 40000", "unit": "nM"}, {"measurement": "Kd", "setting": "PCSK9 [5]", "value": 6, "unit": "nM"}]}
{"compound": "COc1cccn(-c2ccc(N[C@H]3CC[C@H](Nc4nc5cccnc5o4)C3)nc2)c1=O", "note": "[Example 12, 3-Methoxy-6′-(((1S,3S)-3-(oxazolo[5,4-b]pyridin-2-ylamino)cyclopentyl)amino)-2H-[1,3′-bipyridin]-2-one]", "values": [{"measurement": "IC50", "setting": "[1]", "value": "> 10", "unit": "µM"}, {"measurement": "IC50", "setting": "PCSK9 [2]", "value": 158, "unit": "nM"}, {"measurement": "IC50", "setting": "PCSK9 [3]", "value": 3.5, "unit": "nM"}, {"measurement": "IC50", "setting": "[4]", "value": "> 40000", "unit": "nM"}, {"measurement": "Kd", "setting": "PCSK9 [5]", "value": 3, "unit": "nM"}]}
{"compound": "O=C(O)c1ccc(=O)n(-c2ccc(N[C@H]3CC[C@H](Nc4nc5cccnc5[nH]4)C3)nc2)c1", "note": "[Example 44, 6′-(((1S,3S)-3-((3H-Imidazo[4,5-b]pyridin-2-yl)amino)cyclopentyl)amino)-2-oxo-2H-[1,3′-bipyridine]-5-carboxylic acid]", "values": [{"measurement": "IC50", "setting": "[1]", "value": 7.91, "unit": "µM"}, {"measurement": "IC50", "setting": "PCSK9 [2]", "value": 82, "unit": "nM"}, {"measurement": "IC50", "setting": "PCSK9 [3]", "value": 4.1, "unit": "nM"}, {"measurement": "IC50", "setting": "[4]", "value": "> 40000", "unit": "nM"}, {"measurement": "Kd", "setting": "PCSK9 [5]", "value": 4, "unit": "nM"}]}
{"compound": "O=c1c2sccc2ccn1-c1ccc(N[C@H]2CC[C@H](Nc3nc4cccnc4s3)C2)nc1", "note": "[Example 76, 6-(6-(((1S,3S)-3-(Thiazolo[5,4-b]pyridin-2-ylamino)cyclopentyl)amino)pyridin-3-yl)thieno[2,3-c]pyridin-7(6H)-one]", "values": [{"measurement": "IC50", "setting": "[1]", "value": "> 10", "unit": "µM"}, {"measurement": "IC50", "setting": "PCSK9 [2]", "value": 55, "unit": "nM"}, {"measurement": "IC50", "setting": "PCSK9 [3]", "value": 0.4, "unit": "nM"}, {"measurement": "IC50", "setting": "[4]", "value": 2570, "unit": "nM"}, {"measurement": "Kd", "setting": "PCSK9 [5]", "value": 0.1, "unit": "nM"}]}
{"compound": "O=c1ccccn1-c1ccc(N[C@H]2CC[C@H](Nc3nc4c(Br)ccnc4[nH]3)C2)nc1", "note": "[Example 73, 6′-(((1S,3S)-3-((7-Bromo-3H-imidazo[4,5-b]pyridin-2-yl)amino)cyclopentyl)amino)-2H-[1,3′-bipyridin]-2-one]", "values": [{"measurement": "IC50", "setting": "[1]", "value": 0.192, "unit": "µM"}, {"measurement": "IC50", "setting": "PCSK9 [2]", "value": 280, "unit": "nM"}, {"measurement": "IC50", "setting": "PCSK9 [3]", "value": 4.7, "unit": "nM"}, {"measurement": "IC50", "setting": "[4]", "value": "> 40000", "unit": "nM"}, {"measurement": "Kd", "setting": "PCSK9 [5]", "value": 5, "unit": "nM"}]}
{"compound": "N#Cc1cccn(-c2ccc(N[C@H]3CC[C@H](Nc4nc5cccnc5o4)C3)nc2)c1=O", "note": "[Example 15, 6′-(((1S,3S)-3-(Oxazolo[5,4-b]pyridin-2-ylamino)cyclopentyl)amino)-2-oxo-2H-[1,3′-bipyridine]-3-carbonitrile]", "values": [{"measurement": "IC50", "setting": "[1]", "value": "> 10", "unit": "µM"}, {"measurement": "IC50", "setting": "PCSK9 [2]", "value": 76, "unit": "nM"}, {"measurement": "IC50", "setting": "PCSK9 [3]", "value": 3.1, "unit": "nM"}, {"measurement": "IC50", "setting": "[4]", "value": "> 40000", "unit": "nM"}, {"measurement": "Kd", "setting": "PCSK9 [5]", "value": 3, "unit": "nM"}]}
